Legend:
Format in all cases: functional
Settings in all cases: time 18-20 hrs
Escherichia coli [1] = test: Antibacterial activity against Escherichia coli 14-2 assessed as inhibition of bacterial growth measured after 18 to 20 hrs by broth microdilution method
Klebsiella pneumoniae [2] = test: Antibacterial activity against Klebsiella pneumoniae 15-1 assessed as inhibition of bacterial growth measured after 18 to 20 hrs by broth microdilution method
Escherichia coli [3] = test: Antibacterial activity against Escherichia coli 14-4 assessed as inhibition of bacterial growth measured after 18 to 20 hrs by broth microdilution method
Pseudomonas aeruginosa [4] = test: Antibacterial activity against Pseudomonas aeruginosa 17-1 assessed as inhibition of bacterial growth measured after 18 to 20 hrs by broth microdilution method
Acinetobacter baumannii [5] = test: Antibacterial activity against Acinetobacter baumannii 17-2 assessed as inhibition of bacterial growth measured after 18 to 20 hrs by broth microdilution method
Pseudomonas aeruginosa [6] = test: Antibacterial activity against Pseudomonas aeruginosa 19-5 assessed as inhibition of bacterial growth measured after 18 to 20 hrs by broth microdilution method
Acinetobacter baumannii [7] = test: Antibacterial activity against Acinetobacter baumannii 17-8 assessed as inhibition of bacterial growth measured after 18 to 20 hrs by broth microdilution method
Klebsiella pneumoniae [8] = test: Antibacterial activity against Klebsiella pneumoniae 15-4 assessed as inhibition of bacterial growth measured after 18 to 20 hrs by broth microdilution method
Escherichia coli [9] = test: Antibacterial activity against Escherichia coli ATCC 35218 assessed as inhibition of bacterial growth measured after 18 to 20 hrs by broth microdilution method
Klebsiella pneumoniae [10] = test: Antibacterial activity against Klebsiella pneumoniae 15-5 assessed as inhibition of bacterial growth measured after 18 to 20 hrs by broth microdilution method

Row | Structure (SMILES) | MIC (Escherichia coli [1]) [µg/mL] | MIC (Klebsiella pneumoniae [2]) [µg/mL] | MIC (Escherichia coli [3]) [µg/mL] | MIC (Pseudomonas aeruginosa [4]) [µg/mL] | MIC (Acinetobacter baumannii [5]) [µg/mL] | MIC (Pseudomonas aeruginosa [6]) [µg/mL] | MIC (Acinetobacter baumannii [7]) [µg/mL] | MIC (Klebsiella pneumoniae [8]) [µg/mL] | MIC (Escherichia coli [9]) [µg/mL] | MIC (Klebsiella pneumoniae [10]) [µg/mL]
1 | COCCSSCc1ccc(-c2ncc(C(=O)N[C@@H](CCN)C(=O)N(C)[C@@H]3C(=O)N[C@@H](C)C(=O)N[C@H](C(=O)NCC#N)Cc4ccc(OCCN)c(c4)-c4cc3ccc4OCCN)c(C)n2)cc1.O=C(O)C(F)(F)F.O=C(O)C(F)(F)F.O=C(O)C(F)(F)F.O=C(O)C(F)(F)F | 0.5 | 1 | 0.5 | > 64 | 8 | > 64 | 2 | 2 | 0.25 | 1
2 | Cc1nc(-c2ccc(C3SCCS3)cc2)ncc1C(=O)N[C@@H](CCN)C(=O)N(C)[C@@H]1C(=O)N[C@@H](C)C(=O)N[C@H](C(=O)NCC#N)Cc2ccc(OCCN)c(c2)-c2cc1ccc2OCCN.O=C(O)C(F)(F)F.O=C(O)C(F)(F)F.O=C(O)C(F)(F)F.O=C(O)C(F)(F)F | 0.125 | 0.25 | 0.125 | 32 | 8 | 64 | 2 | 1 | 0.06 | 0.25
3 | CSSCc1ccc(-c2ncc(C(=O)N[C@@H](CCN)C(=O)N(C)[C@@H]3C(=O)N[C@@H](C)C(=O)N[C@H](C(=O)NCC#N)Cc4ccc(OCCN)c(c4)-c4cc3ccc4OCCN)c(C)n2)cc1.O=C(O)C(F)(F)F.O=C(O)C(F)(F)F.O=C(O)C(F)(F)F.O=C(O)C(F)(F)F | 0.25 | 0.25 | 0.5 | 64 | 4 | 64 | 1 | 0.5 | 0.06 | 0.5
4 | Cc1nc(-c2ccc(CSSC3CCC3)cc2)ncc1C(=O)N[C@@H](CCN)C(=O)N(C)[C@@H]1C(=O)N[C@@H](C)C(=O)N[C@H](C(=O)NCC#N)Cc2ccc(OCCN)c(c2)-c2cc1ccc2OCCN.O=C(O)C(F)(F)F.O=C(O)C(F)(F)F.O=C(O)C(F)(F)F.O=C(O)C(F)(F)F | 0.125 | 0.125 | 0.125 | 8 | 1 | 4 | 0.5 | 0.25 | ≤ 0.03 | 0.25
5 | CCCCCSSCc1ccc(-c2ncc(C(=O)N[C@@H](CCN)C(=O)N(C)[C@@H]3C(=O)N[C@@H](C)C(=O)N[C@H](C(=O)NCC#N)Cc4ccc(OCCN)c(c4)-c4cc3ccc4OCCN)c(C)n2)cc1.O=C(O)C(F)(F)F.O=C(O)C(F)(F)F.O=C(O)C(F)(F)F.O=C(O)C(F)(F)F | 0.06 | 0.25 | ≤ 0.03 | 4 | 0.5 | 2 | 0.5 | 0.25 | ≤ 0.03 | 0.25
6 | C=CC(=O)N[C@@H]1Cc2ccc(OCCN)c(c2)-c2cc(ccc2OCCN)[C@H](N(C)C(=O)[C@H](CCN)NC(=O)c2cnc(-c3ccc(C(C)(C)C)cc3)nc2C)C(=O)N[C@@H](C)C(=O)N1.O=C(O)C(F)(F)F.O=C(O)C(F)(F)F.O=C(O)C(F)(F)F.O=C(O)C(F)(F)F | 64 | 32 | 64 | > 64 | > 64 | > 64 | 64 | 64 | 64 | 32
7 | Cc1nc(-c2ccc(C(C)(C)C)cc2)ncc1C(=O)N[C@@H](CCN)C(=O)N(C)[C@@H]1C(=O)N[C@@H](C)C(=O)N[C@H](C(=O)NNCC#N)Cc2ccc(OCCN)c(c2)-c2cc1ccc2OCCN.Cl.Cl.Cl.Cl | 1 | 2 | 0.5 | > 64 | 32 | > 64 | 8 | 2 | 0.5 | 1
8 | Cc1nc(-c2ccc(SC(C)(C)C)cc2)ncc1C(=O)N[C@@H](CCN)C(=O)N(C)[C@@H]1C(=O)N[C@@H](C)C(=O)N[C@H](C(=O)NCC#N)Cc2ccc(OCCN)c(c2)-c2cc1ccc2OCCN.O=C(O)C(F)(F)F.O=C(O)C(F)(F)F.O=C(O)C(F)(F)F.O=C(O)C(F)(F)F | 0.125 | 0.06 | 0.06 | 16 | 2 | 16 | 1 | 0.125 | ≤ 0.03 | 0.06
9 | Cc1nc(C2=CCC3(CC2)CC3)ncc1C(=O)N[C@@H](CCN)C(=O)N(C)[C@@H]1C(=O)N[C@@H](C)C(=O)N[C@H](C(=O)NCC#N)Cc2ccc(OCCN)c(c2)-c2cc1ccc2OCCN.O=C(O)C(F)(F)F.O=C(O)C(F)(F)F.O=C(O)C(F)(F)F.O=C(O)C(F)(F)F | 0.25 | 0.25 | 0.25 | > 64 | 16 | > 64 | 4 | 0.25 | 0.125 | 1
10 | Cc1cc(-c2ccc(CSSC(C)(C)C)cc2)ncc1C(=O)N[C@@H](CCN)C(=O)N(C)[C@@H]1C(=O)N[C@@H](C)C(=O)N[C@H](C(=O)NCC#N)Cc2ccc(OCCN)c(c2)-c2cc1ccc2OCCN.O=C(O)C(F)(F)F.O=C(O)C(F)(F)F.O=C(O)C(F)(F)F.O=C(O)C(F)(F)F | 0.25 | 0.125 | 0.125 | 8 | 1 | 6 | 1 | 0.5 | ≤ 0.03 | 0.25
11 | CCCCSSc1ccc(-c2ncc(C(=O)N[C@@H](CCN)C(=O)N(C)[C@@H]3C(=O)N[C@@H](C)C(=O)N[C@H](C(=O)NCC#N)Cc4ccc(OCCN)c(c4)-c4cc3ccc4OCCN)c(C)n2)cc1.O=C(O)C(F)(F)F.O=C(O)C(F)(F)F.O=C(O)C(F)(F)F.O=C(O)C(F)(F)F | 0.06 | 0.25 | 0.125 | 2 | 0.5 | 4 | 0.25 | 0.25 | ≤ 0.03 | 0.125
12 | Cc1nc(-c2ccc(CSSCCC(F)(F)F)cc2)ncc1C(=O)N[C@@H](CCN)C(=O)N(C)[C@@H]1C(=O)N[C@@H](C)C(=O)N[C@H](C(=O)NCC#N)Cc2ccc(OCCN)c(c2)-c2cc1ccc2OCCN.O=C(O)C(F)(F)F.O=C(O)C(F)(F)F.O=C(O)C(F)(F)F.O=C(O)C(F)(F)F | 0.125 | 0.25 | 0.125 | 8 | 2 | 8 | 1 | 0.25 | 0.06 | 0.25
13 | Cc1nc(-c2ccc(CSSC3CCCCC3)cc2)ncc1C(=O)N[C@@H](CCN)C(=O)N(C)[C@@H]1C(=O)N[C@@H](C)C(=O)N[C@H](C(=O)NCC#N)Cc2ccc(OCCN)c(c2)-c2cc1ccc2OCCN.O=C(O)C(F)(F)F.O=C(O)C(F)(F)F.O=C(O)C(F)(F)F.O=C(O)C(F)(F)F | ≤ 0.03 | 0.5 | 0.125 | 4 | 1 | 4 | 0.5 | 0.25 | ≤ 0.03 | 0.25
14 | Cc1nc(-c2ccc(C(C)(C)C)cc2)ncc1C(=O)N[C@@H](CCN)C(=O)N(C)[C@@H]1C(=O)N[C@@H](C)C(=O)N[C@H](C(=O)NCP(=O)(O)O)Cc2ccc(OCCN)c(c2)-c2cc1ccc2OCCN.Cl.Cl.Cl.Cl | 1 | 0.5 | 0.25 | 64 | 8 | 64 | 4 | 0.5 | 0.25 | 0.25
15 | Cc1nc(-c2ccc(C(C)(C)C)cc2)ncc1C(=O)N[C@@H](CCN)C(=O)N(C)[C@H]1Cc2ccc(OCCN)c(c2)-c2cc(ccc2OCCN)C[C@@H](C(=O)NCC#N)NC(=O)[C@H](C)NC1=O.Cl.Cl.Cl.Cl | 64 | > 64 | 64 | > 64 | > 64 | > 64 | > 64 | > 64 | 61 | > 64
16 | Cc1nc(-c2ccc(C(C)(C)C)cc2)ncc1C(=O)N[C@@H](CCN)C(=O)N(C)[C@@H]1C(=O)N[C@@H](C)C(=O)N[C@H](C(=O)O)Cc2ccc(OCCN)c(c2)-c2cc1ccc2OCCN.O=C(O)C(F)(F)F.O=C(O)C(F)(F)F.O=C(O)C(F)(F)F.O=C(O)C(F)(F)F | 0.125 | 0.06 | 0.5 | > 64 | 8 | > 64 | 1 | 0.25 | 0.06 | 0.125
17 | Cc1nc(-c2ccc(C(C)(C)C)cc2)ncc1C(=O)N[C@@H](CCN)C(=O)N(C)[C@@H]1C(=O)N[C@@H](C)C(=O)N[C@H](NC(=O)CC#N)Cc2ccc(OCCN)c(c2)-c2cc1ccc2OCCN.O=C(O)C(F)(F)F.O=C(O)C(F)(F)F.O=C(O)C(F)(F)F.O=C(O)C(F)(F)F | 64 | 32 | 64 | > 64 | > 64 | > 64 | > 64 | 64 | 64 | 64
18 | CSSC1(c2ccc(-c3ncc(C(=O)N[C@@H](CCN)C(=O)N(C)[C@@H]4C(=O)N[C@@H](C)C(=O)N[C@H](C(=O)NCC#N)Cc5ccc(OCCN)c(c5)-c5cc4ccc5OCCN)c(C)n3)cc2)CCC1.O=C(O)C(F)(F)F.O=C(O)C(F)(F)F.O=C(O)C(F)(F)F.O=C(O)C(F)(F)F | 0.125 | 0.06 | 0.06 | 16 | 0.5 | 2 | 0.25 | 0.125 | ≤ 0.03 | 0.125

Source: ChEMBL document CHEMBL5518248, “Design, Synthesis, and Biological Evaluation of Novel Arylomycins against Multidrug-Resistant Gram-Negative Bacteria” (J Med Chem, 2024)
